target: c-Myc template DNA (c-myc quadruplex); experiment: Quadruplex binding / stop assay (Taq polymerase arrest, capillary electrophoresis); details: read-out: Stop Data c-Myc μM; concentration at which 50% of the DNA was arrested (arrested:full-length 1:1)

Compound	IC50 [µM]
CN1CCC[C@H]1CCNC(=O)c1cn2c3c(c(N4CCC(c5cnccn5)C4)c(F)cc3c1=O)Oc1cc3ccccc3cc1-2 (stereo partly drawn) [compound 339]	0.94
CN1CCN(CCCNC(=O)c2cn3c4c(c(NCCCN5CCN(C)CC5)c(F)cc4c2=O)Oc2cc4ccccc4cc2-3)CC1 [compound 342]	0.9
CN1CCN(CCCNC(=O)c2cn3c4cc5c(=O)c6ccccc6c(=O)c5cc4oc4c(F)c(F)cc(c2=O)c43)CC1 [compound 344]	0.9
COC(=O)C(CO)NC(=O)c1cn2c3cc4c(=O)c5ccccc5c(=O)c4cc3oc3c(NCCN4CCCC4)c(F)cc(c1=O)c32 (stereo not drawn) [compound 345]	0.9
CN1CCCC1CCNC(=O)c1cn2c3cc4c(=O)c5ccccc5c(=O)c4cc3oc3c(NCCC4CCCN4C)c(F)cc(c1=O)c32 (stereo not drawn) [compound 346]	0.9
CN(C)CCCCNC(=O)c1cn2c3cc4c(=O)c5ccccc5c(=O)c4cc3oc3c(NCCC4CCCN4C)c(F)cc(c1=O)c32 (stereo not drawn) [compound 347]	0.9
CN1CCCC1CCNC(=O)c1cn2c3cc4c(=O)c5ccccc5c(=O)c4cc3oc3c(NCCCN4CCOCC4)c(F)cc(c1=O)c32 (stereo not drawn) [compound 348]	0.9
CN1CCN(CCCNc2c(F)cc3c(=O)c(C(=O)NCCC4CCCN4C)cn4c5cc6c(=O)c7ccccc7c(=O)c6cc5oc2c34)CC1 (stereo not drawn) [compound 349]	0.9
CN1CCN(CCCNC(=O)c2cn3c4cc5c(=O)c6ccccc6c(=O)c5cc4oc4c(NCCCN5CCN(C)CC5)c(F)cc(c2=O)c43)CC1 [compound 350]	0.9
CN1CCN(c2c(F)cc3c(=O)c(C(=O)NCCC4CCCN4C)cn4c5cc6c(=O)c7ccccc7c(=O)c6cc5oc2c34)CC1 (stereo not drawn) [compound 351]	0.9
CN1CCN(CCCNC(=O)c2cn3c4cc5c(=O)c6ccccc6c(=O)c5cc4oc4c(N5CCN(C)CC5)c(F)cc(c2=O)c43)CC1 [compound 352]	0.9
CN(C)CCNC(=O)c1cn2c3cc4c(=O)c5ccccc5c(=O)c4cc3oc3c(N4CCN(C)CC4)c(F)cc(c1=O)c32 [compound 353]	0.9
CN(C)CCCCNc1c(F)cc2c(=O)c(C(=O)NCCC3CCCN3C)cn3c4cc5c(=O)c6ccccc6c(=O)c5cc4oc1c23 (stereo not drawn) [compound 354]	0.9
CN1CCC[C@H]1CCNC(=O)c1cn2c3c(c(N4CCC(c5cnccn5)C4)c(F)cc3c1=O)Oc1cc3ccccc3cc1-2 (stereo partly drawn) [compound 355]	0.89
CN1CCC[C@@H]1CCNC(=O)c1cn2c3c(c(N4CCC(c5cnccn5)C4)c(F)cc3c1=O)Oc1cc3ccccc3cc1-2 (stereo partly drawn) [compound 356]	0.85
CC1CCCCN1CCCNc1c(F)cc2c(=O)c(C(=O)N3CCOCC3)cn3c2c1Oc1cc2ccccc2cc1-3 (stereo not drawn) [compound 393]	0.75
CN1CCN(CCCNc2c(F)cc3c(=O)c(C(=O)NCCC4CCCN4C)cn4c3c2Oc2cc3ccccc3cc2-4)CC1 (stereo not drawn) [compound 394]	0.75
CN1CCN(CCCNc2c(F)cc3c(=O)c(C(=O)NCCN4CCCC4)cn4c3c2Oc2cc3ccccc3cc2-4)CC1 [compound 395]	0.75
CN(C)CCCCNC(=O)c1cn2c3c(c(NCCCN4CCN(C)CC4)c(F)cc3c1=O)Oc1cc3ccccc3cc1-2 [compound 396]	0.75
CN(C)CCCCNc1c(F)cc2c(=O)c(C(=O)NCCCN3CCOCC3)cn3c2c1Oc1cc2ccccc2cc1-3 [compound 397]	0.75

Compound	IC50 [µM]
CN1CCN(CCCNc2c(F)cc3c(=O)c(C(=O)O)cn4c3c2Oc2cc3ccccc3cc2-4)CC1 [compound 398]	0.75
CN1CCN(CCCNC(=O)c2cn3c4c(c(NCCN5CCCC5)c(F)cc4c2=O)Oc2c-3ccc3ccccc23)CC1 [compound 399]	0.75
CN(C)CCCCNc1c(F)cc2c(=O)c(C(=O)NCCCN3CCOCC3)cn3c2c1Oc1c-3ccc2ccccc12 [compound 400]	0.75
N[C@@H]1CCN(c2c(F)cc3c(=O)c(C(=O)NCCN4CCCC4)cn4c3c2Oc2c-4ccc3ccccc23)C1 [compound 401]	0.75
CN1CCCC1CCNC(=O)c1cn2c3c(c(N4CC[C@@H](NC(=O)CCN5CCOCC5)C4)c(F)cc3c1=O)Oc1cc3c(cc1-2)oc1ccccc13 (stereo partly drawn) [compound 402]	0.75
CN1CCN(CCCNCCC(=O)N[C@@H]2CCN(c3c(F)cc4c(=O)c(C(=O)NCCN5CCCC5)cn5c4c3Oc3cc4c(cc3-5)oc3ccccc34)C2)CC1 [compound 403]	0.75
O=C(CCN1CCOCC1)N[C@@H]1CCN(c2c(F)cc3c(=O)c(C(=O)NCCN4CCCC4)cn4c3c2Oc2cc3c(cc2-4)oc2ccccc23)C1 [compound 404]	0.75
CN(C)CCCCNC(=O)c1cn2c3c(c(N4CC[C@@H](NC(=O)CCNCCN5CCOCC5)C4)c(F)cc3c1=O)Oc1cc3c(cc1-2)oc1ccccc13 [compound 405]	0.75
CC(=O)N[C@@H]1CCN(c2c(F)cc3c(=O)c(C(=O)NCCC4CCCN4C)cn4c3c2Oc2cc3c(cc2-4)oc2ccccc23)C1 (stereo partly drawn) [compound 406]	0.75
CN1CCCC1CCNC(=O)c1cn2c3cc4oc5cc([N+](=O)[O-])ccc5[nH]c4cc3oc3c(NCCN4CCOCC4)c(F)cc(c1=O)c32 (stereo not drawn) [compound 407]	0.75
CN1CCCC1CCNC(=O)c1cn2c3cc4oc5cc([N+](=O)[O-])ccc5[nH]c4cc3oc3c(NCCCN4CCOCC4)c(F)cc(c1=O)c32 (stereo not drawn) [compound 408]	0.75
CN1CCCC1CCNCC(=O)N[C@@H]1CCN(c2c(F)cc3c(=O)c(C(=O)NCCN4CCCCC4)cn4c3c2Oc2cc3c(cc2-4)oc2ccccc23)C1 (stereo partly drawn) [compound 409]	0.75
CN1CCCC1CCNCC(=O)N[C@@H]1CCN(c2c(F)cc3c(=O)c(C(=O)NCCC4CCCN4C)cn4c3c2Oc2cc3c(cc2-4)oc2ccccc23)C1 (stereo partly drawn) [compound 410]	0.75
CN1CCN(C(=O)c2cn3c4c(c(N5CC[C@@H](NC(=O)CNCCC6CCCN6C)C5)c(F)cc4c2=O)Oc2cc4c(cc2-3)oc2ccccc24)CC1 (stereo partly drawn) [compound 411]	0.75
CN1CCCC1CCNCC(=O)N[C@@H]1CCN(c2c(F)cc3c(=O)c(C(=O)N4CCCC4)cn4c3c2Oc2cc3c(cc2-4)oc2ccccc23)C1 (stereo partly drawn) [compound 412]	0.75
CN1CCCC1CCNCC(=O)N[C@@H]1CCN(c2c(F)cc3c(=O)c(C(=O)N4CCCCC4)cn4c3c2Oc2cc3c(cc2-4)oc2ccccc23)C1 (stereo partly drawn) [compound 413]	0.75
CN1CCCC1CCNCC(=O)N[C@@H]1CCN(c2c(F)cc3c(=O)c(C(=O)NCCCn4ccnc4)cn4c3c2Oc2cc3c(cc2-4)oc2ccccc23)C1 (stereo partly drawn) [compound 414]	0.75
O=C(NCCCN1CCOCC1)c1cn2c3cc4oc5cc([N+](=O)[O-])ccc5[nH]c4cc3oc3c(NCCCN4CCOCC4)c(F)cc(c1=O)c32 [compound 415]	0.75
CN1CCCC1CCNC(=O)c1cn2c3c(c(N4CC[C@@H](NC(=O)CCNCCCN5CCOCC5)C4)c(F)cc3c1=O)Oc1cc3c(cc1-2)oc1ccccc13 (stereo partly drawn) [compound 416]	0.75
O=C(NCCN1CCCC1)c1cn2c3cc4c(cc3oc3c(NCCCN5CCOCC5)c(F)cc(c1=O)c32)c(=O)c1ccccc14 [compound 418]	0.75

Compound	IC50 [µM]
O=C(NCCN1CCCC1)c1cn2c3cc4c(cc3oc3c(NCCN5CCOCC5)c(F)cc(c1=O)c32)c(=O)c1ccccc14 [compound 419]	0.75
CN1CCCC1CCNC(=O)c1cn2c3cc4c(cc3oc3c(NCCCN5CCOCC5)c(F)cc(c1=O)c32)c(=O)c1ccccc14 (stereo not drawn) [compound 420]	0.75
CN1CCCC1CCNC(=O)c1cn2c3cc4c(cc3oc3c(N5CC[C@H](NC(=O)OC(C)(C)C)C5)c(F)cc(c1=O)c32)c(=O)c1ccccc14 (stereo partly drawn) [compound 421]	0.75
CN1CCCC1CCNC(=O)c1cn2c3cc4c(cc3oc3c(NCCN5CCOCC5)c(F)cc(c1=O)c32)c(=O)c1ccccc14 (stereo not drawn) [compound 422]	0.75
CN(C)CCCCNC(=O)c1cn2c3cc4c(cc3oc3c(NCCC5CCCN5C)c(F)cc(c1=O)c32)c(=O)c1ccccc14 (stereo not drawn) [compound 423]	0.75
O=C(NCCN1CCOCC1)c1cn2c3cc4c(cc3oc3c(NCCN5CCCC5)c(F)cc(c1=O)c32)c(=O)c1ccccc14 [compound 424]	0.75
O=C(NCCN1CCOCC1)c1cn2c3cc4c(cc3oc3c(NCCCN5CCOCC5)c(F)cc(c1=O)c32)c(=O)c1ccccc14 [compound 425]	0.75
CN1CCN(CCCNC(=O)c2cn3c4cc5c(cc4oc4c(NCCC6CCCN6C)c(F)cc(c2=O)c43)c(=O)c2ccccc25)CC1 (stereo not drawn) [compound 426]	0.75
CN1CCN(CCCNC(=O)c2cn3c4cc5c(cc4oc4c(N6CC[C@H](NC(=O)OC(C)(C)C)C6)c(F)cc(c2=O)c43)c(=O)c2ccccc25)CC1 [compound 427]	0.75
CC(C)(C)OC(=O)N[C@@H]1CCN(c2c(F)cc3c(=O)c(C(=O)NCCCN)cn4c3c2Oc2cc3ccccc3cc2-4)C1 [compound 428]	0.75
CC(C)(C)OC(=O)N[C@@H]1CCN(c2c(F)cc3c(=O)c(C(=O)NCCCN=C(N)N)cn4c3c2Oc2cc3ccccc3cc2-4)C1 [compound 429]	0.75
CNC1CCN(c2c(F)cc3c(=O)c(C(=O)NCCC4CCCN4C)cn4c3c2Oc2cc3ccccc3cc2-4)C1 (stereo not drawn) [compound 430]	0.75
NC1CCN(c2c(F)cc3c(=O)c(C(=O)NCCCCN4CCCC4)cn4c3c2Oc2cc3ccccc3cc2-4)C1 (stereo not drawn) [compound 431]	0.75
CN1CCCC1CCNC(=O)c1cn2c3c(c(NCCN4CCCCC4)c(F)cc3c1=O)Oc1cc3ccccc3cc1-2 (stereo not drawn) [compound 432]	0.75
CN1CCCC1CCNC(=O)c1cn2c3c(c(NC4CCCNC4)c(F)cc3c1=O)Oc1cc3ccccc3cc1-2 (stereo not drawn) [compound 433]	0.75
CN1CCCC1CCNC(=O)c1cn2c3c(c(N4CCC(N5CCCC5)CC4)c(F)cc3c1=O)Oc1cc3ccccc3cc1-2 (stereo not drawn) [compound 434]	0.75
CN1CCCC1CCNC(=O)c1cn2c3c(c(NC4CN5CCC4CC5)c(F)cc3c1=O)Oc1cc3ccccc3cc1-2 (stereo not drawn) [compound 435]	0.75
CCN(CC)CCCC(C)Nc1c(F)cc2c(=O)c(C(=O)NCCC3CCCN3C)cn3c2c1Oc1cc2ccccc2cc1-3 (stereo not drawn) [compound 436]	0.75
CN(C)CCCNc1c(F)cc2c(=O)c(C(=O)NCCC3CCCN3C)cn3c2c1Oc1cc2ccccc2cc1-3 (stereo not drawn) [compound 437]	0.75
CC1CCN(CCCNc2c(F)cc3c(=O)c(C(=O)NCCC4CCCN4C)cn4c3c2Oc2cc3ccccc3cc2-4)CC1 (stereo not drawn) [compound 438]	0.75

From patent US7507727B2, “Substituted quinobenzoxazine analogs and methods of using thereof” (Cylene Pharmaceuticals, Inc., priority 2003, dated 2009)
